Data from patent US7749730B2, “High throughput screening assay for the TRPM5 ion channel” (Redpoint Bio Corporation, priority 2005, dated 2010).

Columns and labels:
Format in all cases: cell-based
[1] = biological target: T1, TRPM5 (Homo sapiens, UniProt Q9NZQ8); assay: Membrane potential assay in transiently TRPM5-transfected HEK 293 cells (FLEXstation); set-up: the full length hTRPM5 was amplified by PCR using GC Melt; expressed in transfected cells; host or cells: HEK 293 (ATCC), transient transfection with Lipofectamine 2000; conditions: for TRPM5 response to agonist (relative fluorescence): within the first 30 seconds of agonist addition, FMP dye
T1 sequence (Q9NZQ8 1-1165): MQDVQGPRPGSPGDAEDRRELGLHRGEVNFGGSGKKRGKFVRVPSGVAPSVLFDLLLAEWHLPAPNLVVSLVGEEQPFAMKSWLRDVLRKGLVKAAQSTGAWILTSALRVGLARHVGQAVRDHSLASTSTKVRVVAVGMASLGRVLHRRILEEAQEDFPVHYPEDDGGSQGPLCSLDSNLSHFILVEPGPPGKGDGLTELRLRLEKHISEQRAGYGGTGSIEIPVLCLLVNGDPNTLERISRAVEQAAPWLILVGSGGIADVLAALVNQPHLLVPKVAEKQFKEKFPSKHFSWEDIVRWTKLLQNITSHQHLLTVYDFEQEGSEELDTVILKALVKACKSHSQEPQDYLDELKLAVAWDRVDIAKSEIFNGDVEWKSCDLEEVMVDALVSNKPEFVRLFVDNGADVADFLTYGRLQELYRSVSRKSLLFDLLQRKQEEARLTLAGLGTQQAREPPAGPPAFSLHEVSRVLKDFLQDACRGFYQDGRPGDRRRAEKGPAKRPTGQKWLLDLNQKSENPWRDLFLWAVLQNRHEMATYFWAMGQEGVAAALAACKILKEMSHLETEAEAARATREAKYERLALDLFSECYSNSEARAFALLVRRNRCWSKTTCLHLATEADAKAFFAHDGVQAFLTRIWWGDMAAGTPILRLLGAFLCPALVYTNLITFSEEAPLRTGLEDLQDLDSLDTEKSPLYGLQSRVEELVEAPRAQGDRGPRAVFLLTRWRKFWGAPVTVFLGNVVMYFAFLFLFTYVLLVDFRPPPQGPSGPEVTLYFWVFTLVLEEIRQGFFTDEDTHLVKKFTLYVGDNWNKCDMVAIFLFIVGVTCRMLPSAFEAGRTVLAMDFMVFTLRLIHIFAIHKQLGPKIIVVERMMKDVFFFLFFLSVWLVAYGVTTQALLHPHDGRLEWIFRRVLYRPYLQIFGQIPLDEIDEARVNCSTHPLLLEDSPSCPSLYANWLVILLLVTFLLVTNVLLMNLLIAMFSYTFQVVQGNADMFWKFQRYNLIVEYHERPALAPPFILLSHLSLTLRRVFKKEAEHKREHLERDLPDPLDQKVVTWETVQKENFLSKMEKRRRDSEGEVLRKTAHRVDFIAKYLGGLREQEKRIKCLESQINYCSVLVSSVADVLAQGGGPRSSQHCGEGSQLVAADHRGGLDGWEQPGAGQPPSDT
Description: As described in greater detail below, HEK 293 cells, transiently transfected with a plasmid bearing the human TRPM5 gene, were used to develop the high throughput screening assay. Indirect measurement of the changes in Na^+ ions within the HEK 293 cells were made using a FMP dye and stimulation of the cells using calcium activating agents.
1.0×10^6 HEK 293 cells (ATCC) were plated in each well of a 6-well tissue culture dish overnight. The following day, cells were transfected with 4 μg of a pcDNA3.2 vector containing TRPM5 cDNA and 8 μl of Lipofectamine 2000 (Invitrogen), according to the manufacturer's protocol, and incubated overnight. The following day, transfected cells were trypsinized and seeded into 96-well black, clear bottom, poly-D-lysine plates (Corning) at a density of 70,000 cells/well in a 100 μl volume and incubated in a 37° C./5% CO2 incubator overnight.
Once the expression of TRPM5 was confirmed in the HEK cells, 100 μl of the Blue or Red FMP dye (Molecular Devices) was added to each well of plates seeded with the transiently transfected cells. The plate was then incubated in a 37° C./5% CO2 incubator for 1 hour. The plate was read in a FLEXStation microplate reader (Molecular Devices) with an excitation of 530 nm and an emission of 565 nm. The fluorescence was monitored for 3 minutes upon exposure of the cells to a calcium activating agent (carbachol, thrombin peptide or ATP).

[2] = tested on: agonist-induced Ca++ flux response; assay: Ca++ flux assay (Calcium 3 Dye)
Description: (§1) The ideal blocker would block TRPM5 but not other channels. The TRPM5 assay is conducted as described in Example 3, utilizing a membrane potential dye. A test compound is added, and the cells are then stimulated with ATP to trigger the channel, leading to a dye response. The process is shown schematically in FIG. 7. The KCl counterscreen is performed as described in Example 3, with identical cells, pretreated with the same compound, but the stimulus was 20 mM KCl, not ATP. KCl stimulated and unstimulated responses are used as controls. […] An additional specificity assay utilizes a Ca++ flux dye (Calcium 3 Dye, Part No. R8091) to determine whether or not the compound interferes with agonist-induced Ca++ flux response.

[3] = biological target: T1, TRPM5; assay: TRPM5 membrane potential dye assay (FLIPR), cells stimulated with ATP; set-up: the full length hTRPM5 was amplified by PCR using GC Melt; expressed in transfected cells; conditions: ATP stimulus
Description: TRPM5 stably expressed in HEK cells was analyzed for its ability to respond to different concentrations of several GPCR agonists. The assay was performed on a FLIPR® using the excitation 510-545 nm and emission 565-625 nm filter sets. Assay plates containing stably expressing HEK cells were loaded with 1× Membrane Potential Assay Dye Red (Molecular Devices) for one hour in a 37° C. and 5% CO2 incubator. The plates were then removed from the incubator and equilibrated to room temperature for 15 minutes before reading on the FLIPR®. The plates were read on the FLIPR® for a total of 3 minutes. Baseline fluorescence was obtained on the FLIPR® for 10 seconds followed by addition of each agonist by the FLIPR® and read for an additional 2 minutes and 50 seconds. […] The values on the graph represent the difference in the maximum minus the minimum fluorescence upon agonist addition. Individual clones are represented by clone number, while the pool of clones represents the sum of all cells that were resistant to selection. In all cases, clone 1 gave the strongest response to all 3 agonists (ATP, carbachol, and thrombin peptide, FIGS. 5A-5C, respectively). Clone 5 and pooled clones generated a lower response in comparison to clone 1. However, both the clone 5 and pool responses were a minimum 3-fold higher than fluorescence in non-transfected cells.
Specificity of potential activating compounds may be identified using suboptimal concentrations of agents that increase intracellular calcium levels. In this type of assay, rather than using a high concentration of, for example carbachol, a reduced concentration is added to TRPM5-expressing cells with or without an additional test compound. Enhancers of TRPM5 activity are those test compounds that increase the fluorescent intensity in reduced carbachol treated cells, to the level seen in cells treated to a high dose.
A carbachol dose response curve was generated for the TRPM5 expressing cells so that the suboptimal concentration range could be determined. […]

[4] = tested on: KCl response; assay: KCl counterscreen (membrane potential dye, 20 mM KCl stimulus); conditions: TRPM5-expressing cells
Description: KCl activates a number of ion channels, but not TRPM5. Therefore, KCl can be used as a counterscreen to identify modulating compounds specific for TRPM5.
as §1

TRPM5 response to agonist (relative fluorescence) [1]	Molecule	effect on Ca++ flux response [2]	inhibition of the TRPM5 response [3]	effect on KCl response [4]	fluorescence over background ([1]; versus mock treated cells)
strong spike in relative fluorescence	C[N+](C)(C)CCOC(N)=O [carbachol]				
strong spike in relative fluorescence	Nc1ncnc2c1ncn2[C@@H]1O[C@H](COP(=O)(O)OP(=O)(O)OP(=O)(O)O)[C@@H](O)[C@H]1O [ATP, adenosine triphosphate]				
	O=c1[nH]c(SCc2ccccc2)nc(O)c1C(c1ccccc1)c1ccccc1 [Compound F0013488,C13]	activates the Ca++ flux response	inhibits TRPM5		
	NC1C(=O)/C(=C\c2cc([N+](=O)[O-])cc([N+](=O)[O-])c2O)SC1=S (centres unmarked) [Compound F001344,A3]		inhibits TRPM5	inhibits TRPM5, but also the KCl responses	
	C=CCOc1ccc(/C=N/NC(=O)CSCc2cccc(Br)c2)cc1OC [compound 1]	does not alter KCl or Ca++ responses	dose responsive inhibition of the TRPM5 response	does not alter KCl or Ca++ responses	

Molecule	TRPM5 response to agonist (relative fluorescence) [1]	effect on Ca++ flux response [2]	inhibition of the TRPM5 response [3]	effect on KCl response [4]	fluorescence over background ([1]; versus mock treated cells)
thrombin	strong spike in relative fluorescence				greater than 4 fold
